From ChEMBL document CHEMBL1800026 (Bioorg Med Chem, 2010)
Active and inactive are the calls of the source. The calls are words filed in the database; no cut-off is given here.

Key:
[1] = target: T1, Beta-2 adrenergic receptor (Homo sapiens, UniProt P07550); test: Displacement of [125I]-CYP from human beta2-adrenergic receptor expressed in COS-7 cells by gamma counting; type: cell-based
[2] = target: Beta-1 adrenergic receptor (Homo sapiens, UniProt P08588); test: Displacement of [125I]-CYP from human beta1-adrenergic receptor expressed in COS-7 cells by gamma counting; type: cell-based
Homo sapiens = species on record: Homo sapiens; test: Selectivity ratio of Ki for human beta1-adrenergic receptor to Ki human beta2-adrenergic receptor
[3] = target: Beta-1 adrenergic receptor (Rattus norvegicus, UniProt P18090); test: Displacement of [3H]CGP-12177 from beta1-adrenergic receptor in Sprague-Dawley rat cortical membrane after 2 hrs
[4] = target: T1, Beta-2 adrenergic receptor; test: Displacement of [3H]CGP-12177 from human beta2-adrenergic receptor expressed in HEK 293 cells; type: cell-based, HEK293
[5] = Selectivity ratio of Ki for beta1-adrenergic receptor in Sprague-Dawley rat cortical membrane to Ki for human beta2-adrenergic receptor
[6] = target: Beta-2 adrenergic receptor (Rattus norvegicus) (UniProt P10608); test: Agonist activity beta2-adrenergic receptor in rat ventricular myocytes assessed as cell contraction following electrical stimulation by optical edge tracking method using photodiode array in presence of receptor antagonist ICI 118551; type: functional, cell-based
[7] = target: Beta-2 adrenergic receptor (Rattus norvegicus) (UniProt P10608); test: Agonist activity beta2-adrenergic receptor in rat ventricular myocytes assessed as cell contraction following electrical stimulation by optical edge tracking method using photodiode array in presence of receptor agonist zinterol; type: functional, cell-based

T1 sequence (P07550 whole entry): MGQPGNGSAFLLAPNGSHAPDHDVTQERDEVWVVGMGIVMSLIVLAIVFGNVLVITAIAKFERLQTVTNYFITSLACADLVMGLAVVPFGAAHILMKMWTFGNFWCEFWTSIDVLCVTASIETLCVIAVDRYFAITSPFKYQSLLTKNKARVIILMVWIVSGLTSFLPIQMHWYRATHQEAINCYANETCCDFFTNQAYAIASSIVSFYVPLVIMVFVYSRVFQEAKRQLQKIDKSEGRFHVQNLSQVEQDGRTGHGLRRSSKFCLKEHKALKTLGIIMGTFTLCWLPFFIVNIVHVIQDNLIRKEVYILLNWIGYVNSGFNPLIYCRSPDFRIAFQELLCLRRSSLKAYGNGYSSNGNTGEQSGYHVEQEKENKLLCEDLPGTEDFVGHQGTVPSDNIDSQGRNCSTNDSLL
Beta-1 adrenergic receptor (Rattus norvegicus, UniProt P18090), sequence (P18090 whole entry): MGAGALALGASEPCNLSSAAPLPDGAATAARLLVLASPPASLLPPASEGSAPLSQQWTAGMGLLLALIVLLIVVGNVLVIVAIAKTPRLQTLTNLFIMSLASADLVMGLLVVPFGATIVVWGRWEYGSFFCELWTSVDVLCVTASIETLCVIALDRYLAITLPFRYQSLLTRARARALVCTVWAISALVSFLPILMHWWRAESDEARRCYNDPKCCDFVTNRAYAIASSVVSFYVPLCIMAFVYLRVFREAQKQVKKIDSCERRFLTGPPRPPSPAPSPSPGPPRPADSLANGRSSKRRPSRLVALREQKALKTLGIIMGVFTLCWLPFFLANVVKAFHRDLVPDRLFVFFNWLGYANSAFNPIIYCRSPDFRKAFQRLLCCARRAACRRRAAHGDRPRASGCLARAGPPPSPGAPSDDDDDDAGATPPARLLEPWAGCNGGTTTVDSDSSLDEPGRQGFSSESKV
Beta-2 adrenergic receptor (Rattus norvegicus), sequence (P10608 whole entry, looked up): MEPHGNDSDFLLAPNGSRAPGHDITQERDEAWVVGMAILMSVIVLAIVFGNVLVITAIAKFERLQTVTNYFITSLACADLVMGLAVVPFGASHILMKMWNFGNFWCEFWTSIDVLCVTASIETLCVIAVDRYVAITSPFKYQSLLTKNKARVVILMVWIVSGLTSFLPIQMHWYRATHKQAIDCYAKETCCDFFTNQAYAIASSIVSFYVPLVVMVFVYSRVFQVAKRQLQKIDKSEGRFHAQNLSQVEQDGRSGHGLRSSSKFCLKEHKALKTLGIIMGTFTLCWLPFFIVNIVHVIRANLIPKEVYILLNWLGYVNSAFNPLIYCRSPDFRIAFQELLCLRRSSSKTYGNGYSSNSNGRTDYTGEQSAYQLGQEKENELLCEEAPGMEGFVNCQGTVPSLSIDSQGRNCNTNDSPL
Beta-1 adrenergic receptor (Homo sapiens, UniProt P08588), sequence (P08588 whole entry): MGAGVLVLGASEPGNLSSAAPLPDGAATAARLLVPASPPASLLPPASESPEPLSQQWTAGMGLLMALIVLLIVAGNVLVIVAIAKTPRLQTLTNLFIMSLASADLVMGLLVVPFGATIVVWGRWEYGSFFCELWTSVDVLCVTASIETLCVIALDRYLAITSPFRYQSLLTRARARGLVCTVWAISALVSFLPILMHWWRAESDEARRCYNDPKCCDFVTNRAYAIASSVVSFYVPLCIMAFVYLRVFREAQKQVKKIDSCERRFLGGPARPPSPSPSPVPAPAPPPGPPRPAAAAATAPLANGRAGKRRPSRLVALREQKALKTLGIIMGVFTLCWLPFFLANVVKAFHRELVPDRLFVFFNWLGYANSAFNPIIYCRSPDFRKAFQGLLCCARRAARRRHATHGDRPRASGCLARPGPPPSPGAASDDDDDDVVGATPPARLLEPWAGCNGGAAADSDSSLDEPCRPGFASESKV

## OCc1cc(C(O)CNCCCCCCCCCCCc2ccccc2)ccc1O (stereo not given)
[1]
  Ki: 0.22 µM
[2]
  Ki: 2.3 µM
Homo sapiens
  Ratio Ki: 10

## C[C@@H](Cc1ccc2ccccc2c1)NC[C@H](O)c1cc(O)cc(O)c1
[3]
  Ki: 27.1 µM

## COc1ccc(C[C@H](C)NC[C@H](O)c2cc(O)cc(O)c2)c2ccccc12 (racemic)
[3]
  Ki: 14.8 µM

## CC[C@H](Cc1ccc(O)cc1)NC[C@H](O)c1cc(O)cc(O)c1
[4]
  Ki: 1.27 µM
[3]
  Ki: 424 µM
[5]
  Ratio Ki: 334
[6]
  Activity: inactive
[7]
  Activity: Active

## CC[C@@H](Cc1ccc(O)cc1)NC[C@H](O)c1cc(O)cc(O)c1 (racemic)
[4]
  Ki: 5.76 µM
[3]
  Ki: 117 µM
[5]
  Ratio Ki: 20

## C[C@H](Cc1ccc2ccccc2c1)NC[C@H](O)c1cc(O)cc(O)c1
[3]
  Ki: 16.6 µM

## COc1ccc(C[C@@H](C)NC[C@H](O)c2cc(O)cc(O)c2)c2ccccc12
[3]
  Ki: 161 µM
